From patent EP1232756A1, “DRUGS, DRINKS OR FOODS” (Takara Shuzo Co, Ltd., priority 1999, dated 2001)
Marks after values point to notes of the source that are not given here.

Key:
Assay type in all cases: in vivo
female SD rat [1] = test: Dose dependency of anti-estrogenic activity of solution of EGCG in ethanol, rat uterine weight (Example 6); conditions: for Uterine weight: 30 minutes before BisA; for Ratio: vs control (100%)
Protocol: (§1) A 16-days old female SD rat (Japan SLC) was purchased together with its mother, weaned at 19 days of age, and subjected to experiments from the next day. BisA was weighed such that it would be administered at 40 mg/kg and dissolved in a small volume of ethanol. Peanut oil was added thereto to result in a final ethanol concentration of 5%. The resulting mixture was subcutaneously or orally administered for three successive days. The uterine removed on the day after the third administration day was weighed. EGCG was dissolved by adding ethanol and water was then added thereto to adjust the final ethanol concentration to 10%. The solution was orally administered 30 minutes before the administration of BisA.

female SD rat [2] = test: Anti-estrogenic activity of solution of EGCG in ethanol against bisphenol-A, rat uterine weight (Example 2); conditions: for Uterine weight: 30 minutes before BisA; for Ratio: vs control (100%)
Protocol: A 17-days old female SD rat (purchased from Japan SLC) was received together with its mother, weaned at 20 days of age, and subjected to experiments from the next day. BisA was weighed such that it would be administered at 200 or 40 mg/kg and dissolved in a small volume of ethanol. Peanut oil was added thereto to result in a final ethanol concentration of 5%. The resulting mixture was orally administered for three successive days. The uterine removed on the next day was weighed. EGCG was dissolved by adding ethanol and water was then added thereto to adjust the final ethanol concentration to 10%. The solution was orally administered on the day before the administration of BisA and 30 minutes before each of the successive administrations of BisA.

female SD rat [3] = test: Anti-estrogenic activity of solution of EGCG in ethanol against 4-nonylphenol, rat uterine weight (Example 3); conditions: NP 50 mg/kg oral + EGCG 200 mg/kg oral in 10% ethanol
Protocol: A 16-days old female SD rat (Japan SLC) was purchased together with its mother, weaned at 19 days of age, and subjected to experiments from the next day.
4-Nonylphenol (hereinafter referred to as NP) was weighed such that it would be administered at 50 mg/kg and diluted by adding peanut oil thereto. The resulting mixture was orally administered for three successive days. The uterine removed on the day after the third administration day was weighed. EGCG was dissolved by adding ethanol and water was then added thereto to adjust the final ethanol concentration to 10%. The solution was orally administered 90 minutes before the administration of NP.

female SD rat [4] = test: Effect of ethanol concentration on anti-estrogenic activity of EGCG, rat uterine weight (Example 4); conditions: for Uterine weight: 90 minutes before BisA; for Ratio: vs control (100%)
Protocol: as §1, with “subcutaneously” for “subcutaneously or orally”, “EGCG (200 mg/kg)” for “EGCG”, “10, 5, 1, 0.5 or 0%.” for “10%.”, “90” for “30”

female SD rat [5] = test: Antagonistic (anti-estrogenic) activity of EGCG against bisphenol-A, immature rat uterine weight (Example 1(3)); conditions: BisA 800 mg/kg + EGCG 800 mg/kg oral at the same time
Protocol: (§2) A 17-days old female SD rat (purchased from Japan SLC) was received together with its mother, weaned at 20 days of age, and subjected to experiments from the next day. Five ml per kg body weight of EGCG (Sigma) or bisphenol-A (hereinafter referred to as BisA, Tokyo Kasei Kogyo) suspended in peanut oil (Nacalai Tesque) was administered orally and forcibly. Peanut oil was administered to a control rat in a similar manner. Administration was carried out once a day for three successive days. The uterine removed 24 hours after the last administration was weighed. BisA (800 mg/kg) and EGCG (800 mg/kg) were administered at the same time.

female SD rat [6] = test: Anti-estrogenic activity of solution of EGCG in ethanol, subcutaneous BisA, rat uterine weight (Example 5); conditions: for Uterine weight / Ratio: 30 minutes before BisA; for Ratio: vs control (100%)
Protocol: as §1, with “subcutaneously” for “subcutaneously or orally”, “EGCG (200 mg/kg)” for “EGCG”, “10 or 0%.” for “10%.”

female SD rat [7] = test: Agonistic (estrogenic) activity: immature rat uterine weight (Example 1(2)); conditions: for Uterine weight / Ratio: substance alone; for Uterine weight: once a day for 3 days, mean ± standard error; for Ratio: uterine weight vs control group (100%), 3 days
Protocol: as §2, with “or EGCG (80 or 800” for “(800”, “was administered. […]” for “and EGCG (800 mg/kg) were administered at the same time.”

[8] = BisA 40 mg/kg oral + EGCG 40 mg/kg oral in 10% ethanol
[9] = BisA 40 mg/kg oral + EGCG 100 mg/kg oral in 10% ethanol
[10] = BisA 40 mg/kg subcutaneous + EGCG 40 mg/kg oral in 10% ethanol
[11] = BisA 40 mg/kg subcutaneous + EGCG 100 mg/kg oral in 10% ethanol
[12] = BisA 200 mg/kg oral + EGCG 100 mg/kg oral in 10% ethanol
[13] = BisA 200 mg/kg oral + EGCG 200 mg/kg oral in 10% ethanol
[14] = BisA 40 mg/kg s.c. + EGCG 200 mg/kg oral in 0 % ethanol
[15] = BisA 40 mg/kg s.c. + EGCG 200 mg/kg oral in 0.5% ethanol
[16] = BisA 40 mg/kg s.c. + EGCG 200 mg/kg oral in 1 % ethanol
[17] = BisA 40 mg/kg s.c. + EGCG 200 mg/kg oral in 5 % ethanol
[18] = BisA 40 mg/kg s.c. + EGCG 200 mg/kg oral in 10 % ethanol
[19] = BisA 40 mg/kg s.c. + EGCG 200 mg/kg oral in 0% ethanol
[20] = BisA 40 mg/kg s.c. + EGCG 200 mg/kg oral in 10% ethanol

Work on O=C(O[C@@H]1Cc2c(O)cc(O)cc2O[C@@H]1c1cc(O)c(O)c(O)c1)c1cc(O)c(O)c(O)c1 [EGCG, epigallocatechin gallate] yielded a Uterine weight (female SD rat [1]; [8]) of 34.8 ± 2.8 mg, a Uterine weight (female SD rat [1]; [9]) of 33.0 ± 4.4 mg and a Uterine weight (female SD rat [1]; [10]) of 44.4 ± 1.5 mg. The Uterine weight (female SD rat [1]; [11]) was 39.6 ± 1.0 mg, the Ratio (female SD rat [1]; [8]) was 106% and the Ratio (female SD rat [1]; [9]) was 101** %. The Ratio (female SD rat [1]; [10]) was 136%, the Ratio (female SD rat [1]; [11]) was 121*** % and the Uterine weight (female SD rat [2]; [9]) was 41.2 ± 2.2 mg. The Uterine weight (female SD rat [2]; [12]) was 47.4 ± 2.6 mg, the Uterine weight (female SD rat [2]; [13]) was 39.8 ± 4.5 mg and the Ratio (female SD rat [2]; [9]) was 95%. For the same molecule, the Ratio (female SD rat [2]; [12]) was 109%, the Ratio (female SD rat [2]; [13]) was 92% and the Uterine weight (female SD rat [3]; 90 minutes before NP) was 33.7 ± 1.9 mg. The Ratio (female SD rat [3]; vs control (100%)) was 109%, the Uterine weight (female SD rat [4]; [14]) was 43.3 ± 1.8 mg and the Uterine weight (female SD rat [4]; [15]) was 40.9 ± 1.8 mg. It also gave a Uterine weight (female SD rat [4]; [16]) of 40.1 ± 2.0 mg, a Uterine weight (female SD rat [4]; [17]) of 37.6 ± 1.8 mg and a Uterine weight (female SD rat [4]; [18]) of 37.0 ± 1.3 mg. The Ratio (female SD rat [4]; [14]) was 161%, the Ratio (female SD rat [4]; [15]) was 152% and the Ratio (female SD rat [4]; [16]) was 149%. It also gave a Ratio (female SD rat [4]; [17]) of 140%, a Ratio (female SD rat [4]; [18]) of 138% and a Uterine weight (female SD rat [5]; in peanut oil, mean ± standard error) of 43.0 ± 2.7 mg. The Ratio (female SD rat [5]; vs control (100%)) was 116%, the Uterine weight (female SD rat [6]; [19]) was 50.9 ± 2.2 mg and the Uterine weight (female SD rat [6]; [20]) was 36.4 ± 1.4 mg. For the same molecule, the “suppression of the increase in uterine weight (in words)” value (female SD rat [6]; BisA 40 mg/kg s.c. + EGCG 200 mg/kg oral without ethanol) was “the increase was not suppressed”, the Ratio (female SD rat [6]; [19]) was 165% and the Ratio (female SD rat [6]; [20]) was 118%. For the same molecule, the “increased uterine weight (in words)” value (female SD rat [7]; EGCG alone, 80 or 800 mg/kg oral) was “did not result in increased uterine weight”, the Uterine weight (female SD rat [7]; 80 mg/kg oral in peanut oil) was 42.2 ± 1.7 mg and the Uterine weight (female SD rat [7]; 800 mg/kg oral in peanut oil) was 39.3 ± 3.2 mg. It also gave a Ratio (female SD rat [7]; 80 mg/kg oral) of 104% and a Ratio (female SD rat [7]; 800 mg/kg oral) of 97%.
